# Laboratory results from patent US20080139558A1, “QUINOLONES USEFUL AS INDUCIBLE NITRIC OXIDE SYNTHASE INHIBITORS” (KALYPSYS, INC., priority 2006, published 2008).
# pEC50: −log10 of the molar value.
# Molecular target: T1, human iNOS (Homo sapiens, UniProt P35228)
# T1 construct: expressed in transfected cells; host or cells: HEK293
# Assay: DAN assay of nitric oxide production (hiNOS)
# Assay type: cell-based
# Settings: enzyme expressed in HEK293 cells transiently transfected with human iNOS
# Method in brief: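 Human iNOS transiently expressed in HEK293 cells; NO production quantified as nitrite via 2,3-diaminonaphthalene reaction forming fluorescent naphthotriazole.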
# T1 sequence (P35228 whole entry): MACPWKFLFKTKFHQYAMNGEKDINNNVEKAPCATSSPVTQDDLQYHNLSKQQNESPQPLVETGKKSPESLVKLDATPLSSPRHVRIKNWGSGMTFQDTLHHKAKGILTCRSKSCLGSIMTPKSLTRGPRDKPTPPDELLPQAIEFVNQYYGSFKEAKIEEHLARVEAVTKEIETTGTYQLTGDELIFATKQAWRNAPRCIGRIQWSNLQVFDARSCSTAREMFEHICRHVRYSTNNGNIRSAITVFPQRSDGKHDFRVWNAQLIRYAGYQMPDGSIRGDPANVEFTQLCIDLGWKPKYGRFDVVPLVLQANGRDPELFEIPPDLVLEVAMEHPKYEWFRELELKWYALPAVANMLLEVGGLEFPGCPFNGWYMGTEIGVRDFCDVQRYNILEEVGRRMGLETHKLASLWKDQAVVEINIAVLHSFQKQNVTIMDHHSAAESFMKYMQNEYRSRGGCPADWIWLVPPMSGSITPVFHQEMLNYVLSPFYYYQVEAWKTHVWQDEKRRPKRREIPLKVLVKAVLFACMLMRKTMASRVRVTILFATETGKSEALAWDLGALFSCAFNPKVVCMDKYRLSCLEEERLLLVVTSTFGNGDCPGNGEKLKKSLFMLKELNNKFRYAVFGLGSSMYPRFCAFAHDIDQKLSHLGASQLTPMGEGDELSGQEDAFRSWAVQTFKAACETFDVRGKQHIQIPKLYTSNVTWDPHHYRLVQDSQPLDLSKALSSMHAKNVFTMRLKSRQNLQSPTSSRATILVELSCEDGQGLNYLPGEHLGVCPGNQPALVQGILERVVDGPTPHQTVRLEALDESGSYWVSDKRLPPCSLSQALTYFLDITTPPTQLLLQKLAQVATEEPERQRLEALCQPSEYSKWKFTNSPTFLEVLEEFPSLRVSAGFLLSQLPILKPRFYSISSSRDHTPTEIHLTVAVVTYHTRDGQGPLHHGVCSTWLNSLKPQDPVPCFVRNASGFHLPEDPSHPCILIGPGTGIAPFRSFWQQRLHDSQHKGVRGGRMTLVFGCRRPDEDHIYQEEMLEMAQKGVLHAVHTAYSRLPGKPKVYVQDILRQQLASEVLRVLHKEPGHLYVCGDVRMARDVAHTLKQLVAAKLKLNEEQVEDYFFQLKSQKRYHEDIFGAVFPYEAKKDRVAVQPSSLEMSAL
row,pEC50,Structure (SMILES)
1,< 5.30,"Cc1cccnc1C(=O)N(Cc1cc(=O)[nH]c2c(F)cccc12)c1cccc(Cl)c1 [Example 73, N-(3-Chlorophenyl)-N-((8-fluoro-2-oxo-1,2-dihydroquinolin-4-yl)methyl)-3-methylpicolinamide]"
2,< 5.30,"CN(C)c1ccccc1C(=O)N(Cc1cc(=O)[nH]c2c(F)cccc12)c1cccc(Cl)c1 [Example 74, N-(3-Chlorophenyl)-2-(dimethylamino)-N-((8-fluoro-2-oxo-1,2-dihydroquinolin-4-yl)methyl)benzamide]"
3,< 5.30,"CN(C)c1cccc(C(=O)N(Cc2cc(=O)[nH]c3c(F)cccc23)c2cccc(Cl)c2)c1 [Example 75, N-(3-Chlorophenyl)-3-(dimethylamino)-N-((8-fluoro-2-oxo-1,2-dihydroquinolin-4-yl)methyl)benzamide]"
4,< 5.30,"CN(C)c1ccc(C(=O)N(Cc2cc(=O)[nH]c3c(F)cccc23)c2cccc(Cl)c2)cc1 [Example 76, N-(3-Chlorophenyl)-4-(dimethylamino)-N-((8-fluoro-2-oxo-1,2-dihydroquinolin-4-yl)methyl)benzamide]"
5,< 5.30,"O=c1cc(CN(c2cccc(Cl)c2)c2ccccn2)c2cccc(F)c2[nH]1 [Example 77, 4-(((3-Chlorophenyl)(pyridin-2-yl)amino)methyl)-8-fluoroquinolin-2(1H)-one]"
6,< 5.30,"O=c1cc(CN(c2cccc(Cl)c2)c2nccc3ccccc23)c2cccc(F)c2[nH]1 [Example 78, 4-(((3-Chlorophenyl)(isoquinolin-1-yl)amino)methyl)-8-fluoroquinolin-2(1H)-one]"
7,< 5.30,"Cc1ncsc1-c1nc2ccccc2n1Cc1cc(=O)[nH]c2c(F)cccc12 [Example 79, 8-Fluoro-4-((2-(4-methylthiazol-5-yl)-1H-benzo[d]imidazol-1-yl)methyl)quinolin-2(1H)-one]"
8,< 5.30,"CC(C)C(=O)N(Cc1cc(=O)[nH]c2c(F)cccc12)c1cccc(Cl)c1 [Example 80, N-(3-Chlorophenyl)-N-((8-fluoro-2-oxo-1,2-dihydroquinolin-4-yl)methyl)isobutyramide]"
9,< 5.30,"O=C(C1CC1)N(Cc1cc(=O)[nH]c2c(F)cccc12)c1cccc(Cl)c1 [Example 81, N-(3-Chlorophenyl)-N-((8-fluoro-2-oxo-1,2-dihydroquinolin-4-yl)methyl)cyclopropanecarboxamide]"
10,< 5.30,"O=C(c1cccc2ccccc12)N(Cc1cc(=O)[nH]c2c(F)cccc12)c1cccc(Cl)c1 [Example 82, N-(3-Chlorophenyl)-N-((8-fluoro-2-oxo-1,2-dihydroquinolin-4-yl)methyl)-1-naphthamide]"
11,< 5.30,"O=C(c1ccc2ccccc2c1)N(Cc1cc(=O)[nH]c2c(F)cccc12)c1cccc(Cl)c1 [Example 83, N-(3-Chlorophenyl)-N-((8-fluoro-2-oxo-1,2-dihydroquinolin-4-yl)methyl)-2-naphthamide]"
12,< 5.30,"O=C(c1ccc2ncccc2c1)N(Cc1cc(=O)[nH]c2c(F)cccc12)c1cccc(Cl)c1 [Example 84, N-(3-Chlorophenyl)-N-((8-fluoro-2-oxo-1,2-dihydroquinolin-4-yl)methyl)quinoline-6-carboxamide]"
13,≥ 5.30,"Cc1ncsc1C(=O)N(Cc1cc(=O)[nH]c2c(F)cccc12)c1ccc(F)c(Cl)c1 [Example 85, N-(3-Chloro-4-fluorophenyl)-N-((8-fluoro-2-oxo-1,2-dihydroquinolin-4-yl)methyl)-4-methylthiazole-5-carboxamide]"
14,< 5.30,"Cc1ncsc1C(=O)N(Cc1cc(=O)[nH]c2c(F)c(F)ccc12)C1CC1 [Example 86, N-Cyclopropyl-N-((7,8-fluoro-2-oxo-1,2-dihydroquinolin-4-yl)methyl)-4-methylthiazole-5-carboxamide]"
15,< 5.30,"Cc1ncsc1C(=O)N(Cc1cc(=O)[nH]c2c(F)cccc12)C1CC1 [Example 87, N-Cyclopropyl-N-((8-fluoro-2-oxo-1,2-dihydroquinolin-4-yl)methyl)-4-methylthiazole-5-carboxamide]"
